What was measured:
Format in all cases: binding
HLA-C*07:01 = HLA-C*07:01 (Homo sapiens, UniProt P10321, K90N/S123Y); conditions: percent relative the binding of positive control peptide […]; duplicated experiments; positive binder >40%
HLA-A*30:01 = HLA-A*30:01 (Homo sapiens, UniProt P04439, D140H/D185E/E176W/F33S/G80R/H175R/K168Q/R138E/R41S); conditions: percent relative the binding of positive control peptide […]; duplicated experiments; positive binder >40%
HLA-B*07:02 = HLA-B*07:02 (Homo sapiens, UniProt P01889); conditions: percent relative the binding of positive control peptide […]; duplicated experiments; positive binder >40%
HLA-A*02:01 = HLA-A*02:01 (Homo sapiens, UniProt P04439, D140Y/D185E/D98H/E176V/E277Q/G131W/G231S/I119V/I121R/I166T/I218V/L300P/L318F/N151K/N90K/P208A/P217A/Q86G/Q94H/R138H/R169H/T345S); conditions: percent relative the binding of positive control peptide […]; plate-bound monomer 0.5 µg/ml; duplicated experiments; positive binder >40%
HLA-A*68:01 = HLA-A*68:01 (Homo sapiens, UniProt P04439, A269V/D185E/E176V/E277Q/E87N/F33Y/G231S/I121M/I166T/I218V/L180W/L300P/L318F/N151K/P208A/P217A/Q86R/R169H/T345S); conditions: percent relative the binding of positive control peptide […]; duplicated experiments; positive binder >40%
HLA-B*58:01 = HLA-B*58:01 (Homo sapiens, UniProt P01889, A329T/C349S/D201E/D98Y/E176V/E187L/E204Q/E69T/G107R/I218V/I90N/K202T/L105A/L119I/N104I/N87E/Q89R/Q94S/R106L/R155S/R180L/R86G/S101N/S121R/S35A/S48A/T118I/V127L/V306I/V36M/Y140S/Y91M); conditions: percent relative the binding of positive control peptide […]; duplicated experiments; positive binder >40%
HLA-A*24:02 = HLA-A*24:02 (Homo sapiens, UniProt P04439, D101N/D140Y/D185E/E176V/E190D/F33S/G103R/G107R/I119L/I121M/I306V/K335N/L105A/L180Q/L300P/N151K/N90K/Q86E/Q94H/R106L/R138H/R89G/T104I/T345S/V100E/W191G/Y123F); conditions: percent relative the binding of positive control peptide […]; duplicated experiments; positive binder >40%
HLA-A*30:02 = HLA-A*30:02 (Homo sapiens, UniProt P04439, D101N/D140H/D185E/E176R/F33S/G80R/H175R/K168Q/Q94H/R138E/R41S/V100E); conditions: percent relative the binding of positive control peptide […]; duplicated experiments; positive binder >40%

Row | Substance | Bind C*07:01 (HLA-C*07:01) | Bind A*30:01 (HLA-A*30:01) | Bind B*07:02 (HLA-B*07:02) | Bind A*02:01 (HLA-A*02:01) | Bind A*68:01 (HLA-A*68:01) | Bind B*58:01 (HLA-B*58:01) | Bind A*24:02 (HLA-A*24:02) | Bind A*30:02 (HLA-A*30:02)
1 | GMGPSLIGL | 35% | 16% | 5% | 84% | 0% | 9% | 53% | 46%
2 | GNNSPAVYL | 51% | 0% | 0% | 0% | 3% | 0% | 6% | 0%
3 | GPSLIGLAM | 0% | 0% | 85% | 11% | 6% | 18% | 0% | 0%
4 | GSAAIGLSM | 66% | 0% | 38% | 31% | 5% | 38% | 7% | 9%
5 | GSSAMILAA | 8% | 0% | 5% | 66% | 4% | 29% | 0% | 0%
6 | GTPNELGGA | 0% | 0% | 0% | 49% | 0% | 0% | 0% | 0%
7 | ILAAYHPQQ | 1% | 1% | 1% | 57% | 0% | 30% | 0% | 45%
8 | IPAEFLENF | 2% | 0% | 47% | 17% | 0% | 0% | 48% | 0%
9 | IPKLVANNT | 0% | 5% | 41% | 0% | 0% | 16% | 0% | 0%
10 | IVMPVGGQS | 0% | 0% | 51% | 44% | 0% | 0% | 0% | 56%
11 | KGDLQSSLG | 25% | 20% | 6% | 10% | 40% | 0% | 4% | 13%
12 | KPTGSAAIG | 0% | 0% | 51% | 0% | 0% | 0% | 0% | 0%
13 | LAMGDAGGY | 0% | 0% | 2% | 10% | 56% | 39% | 0% | 74%
14 | LDPSQGMGP | 18% | 32% | 43% | 41% | 0% | 12% | 12% | 0%
15 | LIGLAMGDA | 0% | 0% | 0% | 59% | 0% | 0% | 0% | 5%
16 | LKFQDAYNA | 53% | 0% | 0% | 17% | 0% | 9% | 0% | 91%
17 | LLDGLRAQD | 0% | 8% | 0% | 63% | 16% | 0% | 0% | 140%

Row | Substance | Bind C*07:01 (HLA-C*07:01) | Bind A*30:01 (HLA-A*30:01) | Bind B*07:02 (HLA-B*07:02) | Bind A*02:01 (HLA-A*02:01) | Bind A*68:01 (HLA-A*68:01) | Bind B*58:01 (HLA-B*58:01) | Bind A*24:02 (HLA-A*24:02) | Bind A*30:02 (HLA-A*30:02)
18 | LSANRAVKP | 24% | 49% | 11% | 17% | 0% | 0% | 27% | 15%
19 | LSIVMPVGG | 0% | 0% | 0% | 33% | 0% | 29% | 0% | 46%
20 | LTSELPQW L | 2% | 0% | 7% | 56% | 0% | 34% | 9% | 19%
21 | MGDAGGYKA | 0% | 0% | 0% | 45% | 9% | 0% | 0% | 0%
22 | MGPSLIGLA | 14% | 15% | 5% | 68% | 0% | 41% | 0% | 0%
23 | MILAAYHPQ | 4% | 0% | 0% | 56% | 0% | 11% | 0% | 82%
24 | MW GPSSDPA | 0% | 0% | 3% | 6% | 7% | 0% | 24% | 74%
25 | NAAGGHNAV | 5% | 27% | 16% | 39% | 28% | 43% | 0% | 2%
26 | NAMKGDLQS | 20% | 6% | 6% | 14% | 15% | 0% | 45% | 0%
27 | NAVFNFPPN | 2% | 0% | 5% | 24% | 27% | 28% | 14% | 70%
28 | NFPPNGTHS | 0% | 11% | 0% | 14% | 0% | 26% | 0% | 43%
29 | NGW DINTPA | 14% | 8% | 21% | 87% | 4% | 0% | 36% | 0%
30 | NNTRLW VYC | 20% | 19% | 4% | 0% | 4% | 11% | 3% | 89%
31 | NT RLW V Y CG | 0% | 27% | 0% | 0% | 0% | 0% | 0% | 49%
32 | PAFEW YYQS | 2% | 0% | 15% | 76% | 6% | 0% | 24% | 0%
33 | PNGTHSWEY | 48% | 0% | 8% | 0% | 9% | 0% | 0% | 77%

Source: PMC3608651, “A Broad Profile of Co-Dominant Epitopes Shapes the Peripheral Mycobacterium tuberculosis Specific CD8+ T-Cell Immune Response in South African Patients with Active Tuberculosis” (PLoS ONE, 2013)
